Measurements reported in ChEMBL document CHEMBL5030524, “Discovery of Cyclic Peptidomimetic Ligands Targeting the Extracellular Domain of EGFR” (J Med Chem, 2021).
Calls of active or inactive are those of the source. The rule behind the calls is not given here.

Experiments:
[1] = Oral bioavailability in human; format: ADME, organism-based; conditions: in vivo
[2] = biological target: T1, Epidermal growth factor receptor (Homo sapiens, UniProt P00533); assay: Binding affinity to EGFR (unknown origin) assessed as dissociation constant by fluorescence polarization assay
[3] = biological target: T1, Epidermal growth factor receptor; assay: Inhibition of […] EGFR phosphorylation in human A549 cells pretreated for 4 hr followed by EGF stimulation by Western blot analysis; format: cell-based
[4] = biological target: T1, Epidermal growth factor receptor; assay: Inhibition of EGFR in human A549 cells assessed as reduction in EGF-induced Akt phosphorylation measured after 4 hrs by Western blot analysis; format: cell-based
[5] = biological target: T1, Epidermal growth factor receptor; assay: Inhibition of EGFR in human A549 cells assessed as reduction in EGF-induced ERK phosphorylation measured after 4 hrs by Western blot analysis; format: cell-based
A549 [6] = assay: Antiproliferative activity against human serum starved A549 cells assessed as reduction in cell viability after 48 hrs in presence of EGF by CCK8 assay; format: functional, cell-based; conditions: A549, 48 h
A549 [7] = assay: Antiproliferative activity against human serum starved A549 cells assessed as reduction in cell viability at 10 uM after 48 hrs by CCK8 assay relative to control; format: functional
HEK293 = assay: Cytotoxicity against HEK293 cells assessed as reduction in cell viability after 48 hrs by CCK8 assay; format: cell-based; conditions: Homo sapiens, HEK293, 48 h
[8] = Selectivity ratio of IC50 for HEK293 cells to IC50 for human A549 cells; format: toxicity; conditions: HEK293 cells versus A549 cells, read-out: Ratio IC50
A549 [9] = assay: Antimigratory activity against human A549 cells assessed as inhibition of cell migration at 25 uM measured after 30 hrs by scratch wound healing assay (reference value: 55.3 %); format: functional; set-up: scale not given: the % may be the effect or the level left
A549 [10] = assay: Antimigratory activity against human A549 cells assessed as inhibition of cell migration at 25 uM in presence of EGF by scratch wound healing assay (reference value: 133.9 %); format: functional; set-up: scale not given: the % may be the effect or the level left
A549 [11] = assay: Antitumor activity against human A549 cells xenografted in athymic nude Ncr/nu mouse assessed as suppression of tumor growth at 10 mg/kg, ip administered once every 2 days for seven times and measured after 6 day; format: functional, organism-based
A549 [12] = assay: Antitumor activity against human A549 cells xenografted in athymic nude Ncr/nu mouse assessed as suppression of tumor growth at 50 mg/kg, ip administered once every 2 days for seven days; format: functional, organism-based; conditions: time 7.0 day
[13] = Toxicity in athymic nude Ncr/nu mouse xenografted with human A549 cells assessed as effect on weight gain at 10 to 50 mg/kg, ip; format: organism-based; conditions: in vivo, 144 h, dose 10-50 mg/kg, time 6 day
Mus musculus [14] = assay: In vivo inhibition of EGFR in athymic nude Ncr/nu mouse xenografted with human A549 cell assessed as reduction in phosphorylated EGFR expression at 50 mg/kg, ip administered every 2 days for 7 times measured after 6 days by immunohistochemical staining based analysis; format: functional, organism-based; conditions: time 6.0 day
Mus musculus [15] = assay: In vivo inhibition of EGFR in athymic nude Ncr/nu mouse xenografted with human A549 cell assessed as reduction in phosphorylated ERK expression at 50 mg/kg, ip administered every 2 days for 7 times measured after 6 days by immunohistochemical staining based analysis; format: functional, organism-based; conditions: time 6.0 day
[16] = biological target: T1, Epidermal growth factor receptor; assay: Inhibition of […] EGFR phosphorylation in human A549 cells at 25 uM pretreated for 4 hr followed by EGF stimulation by Western blot analysis relative to control; format: cell-based
[17] = Stability of the compound assessed as pronase (unknown origin)-mediated drug degradation measured after 20 hrs by HPLC analysis; format: ADME; conditions: bacteria

T1 sequence (P00533 whole entry): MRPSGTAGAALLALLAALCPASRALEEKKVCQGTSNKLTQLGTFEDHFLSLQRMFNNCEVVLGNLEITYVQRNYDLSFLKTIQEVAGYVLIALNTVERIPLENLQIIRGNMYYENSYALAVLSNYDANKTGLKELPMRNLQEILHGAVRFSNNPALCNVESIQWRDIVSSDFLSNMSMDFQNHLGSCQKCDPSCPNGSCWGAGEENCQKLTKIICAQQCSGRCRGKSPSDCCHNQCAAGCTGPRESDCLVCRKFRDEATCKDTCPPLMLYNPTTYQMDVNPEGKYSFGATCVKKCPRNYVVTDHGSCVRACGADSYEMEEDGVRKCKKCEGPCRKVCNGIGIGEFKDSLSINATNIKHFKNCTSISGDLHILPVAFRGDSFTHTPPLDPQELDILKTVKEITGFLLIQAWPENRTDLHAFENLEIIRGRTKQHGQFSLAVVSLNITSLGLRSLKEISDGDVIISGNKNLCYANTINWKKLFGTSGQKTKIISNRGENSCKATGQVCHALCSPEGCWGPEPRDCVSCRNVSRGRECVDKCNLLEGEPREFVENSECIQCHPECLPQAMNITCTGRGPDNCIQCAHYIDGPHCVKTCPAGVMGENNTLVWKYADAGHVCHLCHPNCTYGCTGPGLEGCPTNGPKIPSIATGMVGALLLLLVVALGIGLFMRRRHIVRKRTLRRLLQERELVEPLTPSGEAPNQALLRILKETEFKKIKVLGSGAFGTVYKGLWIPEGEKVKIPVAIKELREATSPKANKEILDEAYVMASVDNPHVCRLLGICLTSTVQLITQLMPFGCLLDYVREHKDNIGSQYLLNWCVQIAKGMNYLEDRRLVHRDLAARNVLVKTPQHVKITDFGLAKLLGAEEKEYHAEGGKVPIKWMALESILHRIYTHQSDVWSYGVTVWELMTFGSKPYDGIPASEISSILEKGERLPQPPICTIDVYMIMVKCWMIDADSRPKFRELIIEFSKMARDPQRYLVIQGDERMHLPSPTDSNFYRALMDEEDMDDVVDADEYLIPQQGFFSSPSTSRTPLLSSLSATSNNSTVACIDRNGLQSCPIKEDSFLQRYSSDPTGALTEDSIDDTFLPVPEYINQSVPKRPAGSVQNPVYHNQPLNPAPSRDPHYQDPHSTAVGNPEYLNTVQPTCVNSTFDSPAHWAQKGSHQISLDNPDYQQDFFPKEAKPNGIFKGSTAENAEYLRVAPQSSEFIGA

SMILES	bioavailability [1] [%]	Kd [2] [µM]	IC50 [3] [µM]	inhibition [4]	inhibition [5]	IC50 (A549 [6]) [µM]	Activity (A549 [7]) [%]	IC50 (HEK293) [µM]	selectivity ratio [8]	Activity (A549 [9]) [%]	Activity (A549 [10]) [%]	Activity (A549 [11])	Activity (A549 [12])	Activity [13]	inhibition (Mus musculus [14])	inhibition (Mus musculus [15])	inhibition [16] [%]	Drug degradation [17]
NC(=O)N1c2ccccc2C=Cc2ccccc21 [CARBAMAZEPINE]	> 90	–	–	–	–	–	–	–	–	–	–	–	–	–	–	–	–	–
COc1cc(CC(=O)N2CC(=O)N[C@@H](Cc3ccccc3)C(=O)N(CC(N)=O)C(=O)CCSCc3ccc(cc3)C(=O)N[C@@H](CCCCN)CN(C(=O)CCC3CCCCC3)CC(=O)N[C@@H](Cc3ccccc3)CN(C(=O)CCc3ccccc3)CC(=O)N[C@@H](Cc3ccccc3)C2)cc(OC)c1	–	0.43	17.7	Dose-Dependent Effect	Dose-Dependent Effect	8.36	100	62.1	8	15.2	64.8	inactive	Active	Non-Toxic	Active	inactive	100	Stable
CC(C)C[C@H]1CN(C(=O)Cc2ccc3c(c2)OCO3)CC(=O)N[C@@H](Cc2ccccc2)CN(C(=O)CCC2CCCCC2)CC(=O)N[C@@H](Cc2ccccc2)CN(C(=O)Cc2ccc3c(c2)OCO3)CC(=O)N[C@@H](CC(C)C)C(=O)N(CC(N)=O)C(=O)CCSCc2ccc(cc2)C(=O)N1	–	0.55	–	–	–	–	–	–	–	–	–	–	–	–	–	–	–	–
